Laboratory results taken from ChEMBL document CHEMBL4665709, “Rational Avoidance of Protease Cleavage Sites and Symmetrical End-Tagging Significantly Enhances the Stability and Therapeutic Potential of Antimicrobial Peptides” (J Med Chem, 2020).
Converted amounts (≈) assume the structure as drawn. The source made the active and inactive calls. The calls are words filed in the database; no cut-off is given here.

Legend:
[1] = Therapeutic index, ratio of MHC for human RBC to geometric mean of peptide MIC for Streptococcus agalactiae H92; type: toxicity; settings: human red blood cells (RBC), read-out: TI
[2] = Therapeutic index, ratio of MHC for human RBC to geometric mean of peptide MIC for Salmonella choleraesuis 503; type: toxicity; settings: human red blood cells (RBC), read-out: TI
[3] = Stability of compound assessed as pepsin (unknown origin)-mediated drug degradation after 1 hr by SDS-PAGE analysis; type: ADME; settings: human
Escherichia coli [4] = test: Antibacterial activity against Escherichia coli ATCC 25922 measured after 18 to 24 hrs in presence of chymotrypsin by CLSI-based broth microdilution method; type: functional, organism-based; settings: time hrs 18-24
Streptococcus agalactiae = test: Antibacterial activity against Streptococcus agalactiae H92 after 18 to 24 hrs by CLSI-based broth microdilution method; type: functional; settings: time hrs 18-24
[5] = Hemolytic activity in human RBC assessed as hemolysis at 1 to 128 uM relative to control; type: ADME, cell-based, Erythrocyte; settings: human red blood cells (RBC), dose 1-128 µM, read-out: Activity
[6] = Therapeutic index, ratio of MHC for human RBC to geometric mean of peptide MIC for Staphylococcus aureus ATCC 29213; type: toxicity; settings: human red blood cells (RBC), read-out: TI
[7] = Stability of compound assessed as chymotrypsin (unknown origin)-mediated drug degradation after 1 hr by SDS-PAGE analysis; type: ADME; settings: human
[8] = Stability of compound assessed as proteinase K (unknown origin)-mediated drug degradation after 1 hr by SDS-PAGE analysis; type: ADME; settings: human
[9] = Therapeutic index, ratio of MHC for human RBC to geometric mean of peptide MIC for Salmonella typhimurium 7731; type: toxicity; settings: human red blood cells (RBC), read-out: TI
Escherichia coli [10] = test: Antibacterial activity against Escherichia coli ATCC 25922 measured after 18 to 24 hrs in presence of proteinase K by CLSI-based broth microdilution method; type: functional, organism-based; settings: time hrs 18-24
Staphylococcus aureus [11] = test: Antibacterial activity against Staphylococcus aureus 29213 with 0.0625-2 mg/mL proteinase K for 1 hr followed by test compound addition measured after 4 to 8 hrs by CLSI-based broth microdilution method; type: functional, organism-based; settings: time hrs 4-8
[12] = Therapeutic index, ratio of MHC for human RBC to geometric mean of peptide MIC for Escherichia coli UB1005; type: toxicity; settings: human red blood cells (RBC), read-out: TI
[13] = Therapeutic index, ratio of MHC for human RBC to geometric mean of peptide MIC for Salmonella pullorum 7913; type: toxicity; settings: human red blood cells (RBC), read-out: TI
Staphylococcus aureus [14] = test: Antibacterial activity against Staphylococcus aureus 29213 with 0.0625-2 mg/mL trypsin for 1 hr followed by test compound addition measured after 4 to 8 hrs by CLSI-based broth microdilution method; type: functional, organism-based; settings: time hrs 4-8
RAW264.7 = test: Cytotoxicity against mouse RAW264.7 cells assessed as reduction in cell viability lower concentration by MTT assay; type: cell-based
[15] = Therapeutic index, ratio of MHC for human RBC to geometric mean of peptide MIC for Escherichia coli ATCC 25922; type: toxicity; settings: human red blood cells (RBC), read-out: TI
[16] = Stability of compound assessed as pepsin (unknown origin)-mediated drug degradation after 1 hr by RP-HPLC analysis; type: ADME; settings: human
[17] = Therapeutic index, ratio of MHC for human RBC to geometric mean of peptide MIC for Staphylococcus aureus 11011; type: toxicity; settings: human red blood cells (RBC), read-out: TI
[18] = Stability of compound at 100 degreeC after 30 to 90 mins; type: physicochemical; settings: time 30-90 min
Escherichia coli [19] = test: Antibacterial activity against Escherichia coli ATCC 25922 measured after 18 to 24 hrs in presence of pepsin by CLSI-based broth microdilution method; type: functional, organism-based; settings: time hrs 18-24
Trypsin [20] = target: T1, Trypsin (Homo sapiens, UniProt P07477+P07478+P35030); test: Stability of compound assessed as trypsin (unknown origin)-mediated drug degradation after 1 hr by RP-HPLC analysis; type: ADME, protein assay
Staphylococcus aureus [21] = test: Antibacterial activity against Staphylococcus aureus 29213 with 0.0625-2 mg/mL chymotrypsin for 1 hr followed by test compound addition measured after 4 to 8 hrs by CLSI-based broth microdilution method; type: functional, organism-based; settings: time hrs 4-8
Erythrocyte = test: Hemolytic activity in human RBC assessed as hemolysis; type: ADME, cell-based
HEK-293T = test: Cytotoxicity against HEK-293T cells assessed as reduction in cell viability at lower concentration by MTT assay; type: cell-based; settings: human
Cell membrane = test: Induction of outer membrane permeabilization in Escherichia coli ATCC 25922 after 30 mins by NPN-dye based assay
[22] = Therapeutic index, ratio of MHC for human RBC to geometric mean of peptide MIC for Enterococcus faecalis ATCC 29212; type: toxicity; settings: human red blood cells (RBC), read-out: TI
[23] = Therapeutic index, ratio of MHC for human RBC to geometric mean of peptide MIC for Staphylococcus epidermidis ATCC 12228; type: toxicity; settings: human red blood cells (RBC), read-out: TI
[24] = Therapeutic index, ratio of MHC for human RBC to geometric mean of peptide MIC for methicillin-resistant Staphylococcus aureus 43300; type: toxicity; settings: human red blood cells (RBC), read-out: TI
Staphylococcus aureus [25] = test: Antibacterial activity against Staphylococcus aureus 29213 with 0.0625-2 mg/mL pepsin for 1 hr followed by test compound addition measured after 4 to 8 hrs by CLSI-based broth microdilution method; type: functional, organism-based; settings: time hrs 4-8
Trypsin [26] = target: T1, Trypsin; test: Stability of compound assessed as trypsin (unknown origin)-mediated drug degradation after 1 hr by SDS-PAGE analysis; type: ADME, protein assay
[27] = Hemolytic activity in human RBC assessed as hemolysis at 1 uM relative to control; type: ADME, cell-based, Erythrocyte; settings: human red blood cells (RBC), read-out: Activity
Enterococcus faecalis = test: Antibacterial activity against Enterococcus faecalis ATCC 29212 after 18 to 24 hrs by CLSI-based broth microdilution method; type: functional; settings: time hrs 18-24
Escherichia coli [28] = test: Antibacterial activity against Escherichia coli ATCC 25922 measured after 18 to 24 hrs in presence of trypsin by CLSI-based broth microdilution method; type: functional, organism-based; settings: time hrs 18-24
[29] = Stability of compound assessed as proteinase K (unknown origin)-mediated drug degradation after 1 hr by RP-HPLC analysis; type: ADME; settings: human
[30] = Antibacterial activity against Salmonella pullorum 7913 after 18 to 24 hrs by CLSI-based broth microdilution method; type: functional, Salmonella enterica subsp. enterica serovar Pullorum; settings: Salmonella enterica, time hrs 18-24
[31] = Stability of compound assessed as chymotrypsin (unknown origin)-mediated drug degradation after 1 hr by RP-HPLC analysis; type: ADME; settings: human
[32] = Therapeutic index, ratio of MHC for human RBC to geometric mean of peptide MIC for Salmonella typhimurium 14028; type: toxicity; settings: human red blood cells (RBC), read-out: TI
Salmonella enterica = test: Antibacterial activity against Salmonella choleraesuis 503 after 18 to 24 hrs by CLSI-based broth microdilution method; type: functional; settings: time hrs 18-24

Structure (SMILES): CC[C@H](C)[C@H](NC(=O)CN)C(=O)NCC(=O)N[C@@H](C)C(=O)N[C@H](C(=O)N[C@@H](CC(C)C)C(=O)N[C@@H](CCCCN)C(=O)N[C@H](C(=O)N[C@@H](CC(C)C)C(=O)N[C@H](C(=O)N[C@H](C(=O)NCC(=O)N[C@@H](CC(C)C)C(=O)N1CCC[C@H]1C(=O)N[C@@H](C)C(=O)N[C@@H](CC(C)C)C(=O)N[C@H](C(=O)N[C@@H](CO)C(=O)N[C@@H](Cc1c[nH]c2ccccc12)C(=O)N[C@H](C(=O)N[C@@H](CCCCN)C(=O)N[C@@H](CCCNC(=N)N)C(=O)N[C@@H](CCCCN)C(=O)N[C@@H](CCCNC(=N)N)C(=O)N[C@@H](CCC(N)=O)C(=O)N[C@@H](CCC(N)=O)C(N)=O)[C@@H](C)CC)[C@@H](C)CC)[C@@H](C)O)[C@@H](C)O)C(C)C)C(C)C [MELITTIN]
- selectivity ratio [1]: 0.56
- selectivity ratio [2]: 0.4
- Stabilty [3]: Unstable
- Activity (Escherichia coli [4]): inactive
- MIC (Streptococcus agalactiae): 1 µM (≈ 2.85 µg/mL)
- hemolysis at up to 128 µM [5]: < 5%
- selectivity ratio [6]: 0.56
- Stabilty [7]: Unstable
- Stabilty [8]: Unstable
- selectivity ratio [9]: 0.4
- Activity (Escherichia coli [10]): inactive
- Activity (Staphylococcus aureus [11]): inactive
- selectivity ratio [12]: 0.4
- selectivity ratio [13]: 0.4
- Activity (Staphylococcus aureus [14]): inactive
- Activity (RAW264.7): Toxic
- selectivity ratio [15]: 0.4
- Stabilty [16]: Unstable
- selectivity ratio [17]: 0.56
- Stabilty [18]: Stable
- Activity (Escherichia coli [19]): inactive
- Stabilty (Trypsin [20]): Unstable
- Activity (Staphylococcus aureus [21]): inactive
- MHC (Erythrocyte): 1 µM
- Activity (HEK-293T): Toxic
- Activity (Cell membrane): Dose-dependent effect
- selectivity ratio [22]: 0.56
- selectivity ratio [23]: 0.56
- selectivity ratio [24]: 0.56
- Activity (Staphylococcus aureus [25]): inactive
- Stabilty (Trypsin [26]): Unstable
- hemolysis at 1 µM [27]: 10.1%
- MIC (Enterococcus faecalis): 2 µM (≈ 5.69 µg/mL)
- Activity (Escherichia coli [28]): inactive
- Stabilty [29]: Unstable
- MIC [30]: 4 µM (≈ 11.4 µg/mL)
- Stabilty [31]: Unstable
- selectivity ratio [32]: 0.4
- MIC (Salmonella enterica): 4 µM (≈ 11.4 µg/mL)
